# In publication PMC7944240 (Anesthesiology, 2020):
# Legend:
# α1β3γ2L GABAA receptors [1] = molecular target: T1, α1β3γ2L GABAA receptors (Homo sapiens, UniProt P14867+P18507+P28472); format: cell-based
# α1β3γ2L GABAA receptors [2] = molecular target: T1, α1β3γ2L GABAA receptors; format: cell-based; remark: listed apart in the source
# zebrafish larvae = experiment: Zebrafish larvae photomotor response; format: in vivo, Danio rerio; conditions: for EC50: Danio rerio, read-out: EC50 for abolishing zebrafish larvae motor responses to a light stimulus
# GABAA receptor = conditions: cited from earlier work
# α1β3γ2L GABAA receptors [3] = molecular target: T1, α1β3γ2L GABAA receptors; format: cell-based; conditions: for IC50: IC50 for antagonizing direct activation by 20 μM etomidate in the presence of flumazenil, [Benzodiazepine]:[Flumazenil] = 1:2
# [4] = molecular target: purified α1β3γ2L GABAA receptors (Homo sapiens, UniProt P14867+P18507+P28472); experiment: Inhibition of R-[3H]azietomidate photoaffinity labeling of purified receptors; conditions: at up to 300 μM
# purified GABAA receptors = conditions: cited from earlier work
# T1 sequence (P14867 28-456): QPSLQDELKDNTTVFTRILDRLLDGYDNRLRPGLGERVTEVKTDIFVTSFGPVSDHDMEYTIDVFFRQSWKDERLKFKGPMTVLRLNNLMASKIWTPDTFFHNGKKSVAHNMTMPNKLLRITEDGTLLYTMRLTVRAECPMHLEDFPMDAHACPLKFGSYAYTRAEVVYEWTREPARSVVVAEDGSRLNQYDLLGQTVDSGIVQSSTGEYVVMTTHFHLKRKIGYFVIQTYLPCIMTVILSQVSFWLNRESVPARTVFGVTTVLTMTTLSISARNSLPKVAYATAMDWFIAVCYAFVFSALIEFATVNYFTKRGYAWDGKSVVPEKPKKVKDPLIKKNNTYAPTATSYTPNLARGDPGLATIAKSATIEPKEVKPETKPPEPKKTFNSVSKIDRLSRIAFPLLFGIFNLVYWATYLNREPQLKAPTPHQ
# T1 sequence (P28472 26-473): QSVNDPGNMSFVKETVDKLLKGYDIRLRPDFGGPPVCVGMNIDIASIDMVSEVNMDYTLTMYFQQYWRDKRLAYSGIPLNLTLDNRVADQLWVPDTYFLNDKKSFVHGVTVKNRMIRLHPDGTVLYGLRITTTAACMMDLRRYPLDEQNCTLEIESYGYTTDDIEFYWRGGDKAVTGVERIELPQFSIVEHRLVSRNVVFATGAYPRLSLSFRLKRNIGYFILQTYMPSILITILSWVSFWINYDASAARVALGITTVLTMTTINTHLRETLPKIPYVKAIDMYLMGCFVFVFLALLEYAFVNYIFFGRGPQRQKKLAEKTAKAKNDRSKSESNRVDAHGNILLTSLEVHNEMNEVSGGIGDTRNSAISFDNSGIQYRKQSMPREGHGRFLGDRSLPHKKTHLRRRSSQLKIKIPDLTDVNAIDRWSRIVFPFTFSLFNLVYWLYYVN
# T1 sequence (P18507 40-475): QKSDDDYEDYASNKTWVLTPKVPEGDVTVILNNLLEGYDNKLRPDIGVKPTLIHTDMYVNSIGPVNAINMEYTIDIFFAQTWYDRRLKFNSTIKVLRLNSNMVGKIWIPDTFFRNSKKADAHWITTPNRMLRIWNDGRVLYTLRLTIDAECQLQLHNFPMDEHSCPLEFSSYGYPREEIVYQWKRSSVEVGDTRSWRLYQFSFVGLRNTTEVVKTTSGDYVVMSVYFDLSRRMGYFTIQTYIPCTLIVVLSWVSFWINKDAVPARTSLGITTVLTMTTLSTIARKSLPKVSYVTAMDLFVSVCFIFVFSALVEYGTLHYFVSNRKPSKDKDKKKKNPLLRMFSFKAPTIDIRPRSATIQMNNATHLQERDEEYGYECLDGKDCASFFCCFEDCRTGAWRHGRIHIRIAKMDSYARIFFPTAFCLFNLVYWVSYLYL
# Sequence of purified α1β3γ2L GABAA receptors (P14867 28-456): as the sequence (P14867 28-456) above
# Sequence of purified α1β3γ2L GABAA receptors (P28472 26-473): as the sequence (P28472 26-473) above
# Sequence of purified α1β3γ2L GABAA receptors (P18507 40-475): as the sequence (P18507 40-475) above
structure (smiles),measurement,setting,value
CN1C(=O)CN=C(c2ccccc2)c2cc(Cl)ccc21 [Diazepam],reduction of GABA-activated peak current amplitudes at micromolar concentrations,α1β3γ2L GABAA receptors [1]; 6 μM GABA,did not see a similar reduction
same,Schild slope,"α1β3γ2L GABAA receptors [2]; against etomidate direct activation, flumazenil present (1:4)",1.1
same,effect on zebrafish larvae motor responses to light stimulus,"zebrafish larvae; 50 μM, alone, no flumazenil",essentially abolishes
same,potentiation of currents activated by low concentrations of GABA via the etomidate binding site,GABAA receptor,no more than two- to threefold
Clc1ccc2c(c1)C(c1ccccc1)=NCc1nncn1-2 [Estazolam],IC50,α1β3γ2L GABAA receptors [3],59 µM
CN1C(=O)CN=C(c2ccccc2F)c2cc(Cl)ccc21 [Fludiazepam],IC50,α1β3γ2L GABAA receptors [3],390 µM
same,"etomidate inhibitory potency, fold lower than diazepam",α1β3γ2L GABAA receptors [3]; relative to diazepam,30 ×
CCOC(=O)c1ncn2c1CN(C)C(=O)c1cc(F)ccc1-2 [Flumazenil],impact on etomidate-activated currents in the absence of diazepam,α1β3γ2L GABAA receptors [3]; data not shown,no impact
same,impact on GABA-activated currents in the absence of diazepam,α1β3γ2L GABAA receptors [1]; data not shown,no impact
same,effect on R-[3H]azietomidate photo-incorporation,[4],little inhibitory effect
O=C1Nc2ccc(Cl)cc2C(c2ccccc2Cl)=NC1O (stereo not drawn) [Lorazepam],IC50,α1β3γ2L GABAA receptors [3],≥ 1000 µM
CN1CCN=C(c2ccccc2)c2cc(Cl)ccc21 [Medazepam],IC50,α1β3γ2L GABAA receptors [3],≥ 1000 µM
Cc1ncc2n1-c1ccc(Cl)cc1C(c1ccccc1F)=NC2 [Midazolam],IC50,α1β3γ2L GABAA receptors [3],560 µM
O=C1CN=C(c2ccccc2)c2cc([N+](=O)[O-])ccc2N1 [Nitrazepam],IC50,α1β3γ2L GABAA receptors [3],130 µM
O=C1CN=C(c2ccccc2)c2cc(Cl)ccc2N1 [Nordiazepam],IC50,α1β3γ2L GABAA receptors [3],32 µM
CCOC(=O)c1cncn1[C@H](C)c1ccccc1 [etomidate],Hill slope of etomidate concentration-response curve,α1β3γ2L GABAA receptors [2]; Schild analysis,2.1
same,EC50,zebrafish larvae,0.66 µM
same,potentiation of currents activated by low concentrations of GABA,GABAA receptor; high concentrations,more than an order of magnitude
CN1C(=O)CN=C(c2ccccc2F)c2cc([N+](=O)[O-])ccc21 [flunitrazepam],reduction in apparent affinity with purified GABAA receptors,purified GABAA receptors,sevenfold
CNC1(c2ccccc2Cl)CCCCC1=O (stereo not drawn) [ketamine],EC50,zebrafish larvae,170 µM
same,fold leftward shift of anesthetic concentration-response curve,zebrafish larvae; by 50 μM diazepam plus 200 μM flumazenil,19 fold
